In PubChem BioAssay (NCI) one finds TGI data, which are given here for eleven compounds.

Some test systems named below: MCF7 breast; SK-MEL-2 melanoma; SR leukemia; IGROV1 ovarian; SN12C renal; LOX IMVI melanoma; OVCAR-4 ovarian; PC-3 prostate; 786-0 renal; MDA-MB-231 breast.
Holding throughout (test): NCI anticancer screen, dose series, 48 h

The structures appear in SMILES notation.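 In this assay, cells in 96-well plates receive the compound at five concentrations for 48 hours. Endpoints are linearly interpolated between the surrounding concentrations. TGI marks complete inhibition of growth.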

For the compound `COc1cc(C2C3=C(COC3=O)OC(C)(C)Oc3cc4c(cc32)OCO4)cc(OC)c1O` (stereo not given), the TGI with MCF7 breast, with SK-MEL-2 melanoma, with SR leukemia, with IGROV1 ovarian, with SN12C renal and with LOX IMVI melanoma was over 100 µM each time. Further, the TGI in the test on OVCAR-4 ovarian is over 100 µM; in the test with PC-3 prostate, over 100 µM; with 786-0 renal, over 100 µM; with MDA-MB-231 breast, 11.5 µM.

`NC(CSS(=O)(=O)O)=NC1CC2CCC1C2` (stereo not given): the TGI in the test on MCF7 breast, with SK-MEL-2 melanoma, in the test on SR leukemia, in the test with IGROV1 ovarian, in the test on SN12C renal and with LOX IMVI melanoma was over 100 µM in each case. Also, the TGI in the test on OVCAR-4 ovarian, with PC-3 prostate, with 786-0 renal and in the test with MDA-MB-231 breast was over 100 µM in each case.

For `C[C@]12CC[C@H]3[C@@H](CCC4=CC(=O)CC[C@@H]43)[C@@H]1CC[C@]2(O)C(N)=O`, the TGI in the test on MCF7 breast, with SK-MEL-2 melanoma, with SR leukemia, in the test with IGROV1 ovarian, in the test with SN12C renal and in the test on LOX IMVI melanoma was over 100 µM throughout. Also, the TGI with OVCAR-4 ovarian, in the test on PC-3 prostate, in the test on 786-0 renal and in the test on MDA-MB-231 breast was over 100 µM throughout.

As for `CC(C)C[C@H]1[C@@H](OCc2ccccc2)COS(=O)(=O)N1[C@H](C)c1ccccc1`, the TGI in the test with MCF7 breast was over 100 µM; in the test on SK-MEL-2 melanoma it was over 100 µM; in the test on SR leukemia, over 83.7 µM; in the test on IGROV1 ovarian it was over 100 µM; in the test with SN12C renal, over 100 µM; in the test with LOX IMVI melanoma, over 100 µM. In addition, the TGI in the test with OVCAR-4 ovarian, in the test on PC-3 prostate, in the test with 786-0 renal and in the test on MDA-MB-231 breast was over 100 µM each time.

On to `CCCCNC(=S)Nc1nc(C(=O)NNC(=S)NCC)cs1`, for which the TGI in the test on MCF7 breast, in the test with SK-MEL-2 melanoma, in the test with SR leukemia, in the test with IGROV1 ovarian, in the test on SN12C renal and in the test with LOX IMVI melanoma was over 100 µM throughout. The TGI in the test on OVCAR-4 ovarian, in the test with PC-3 prostate, in the test with 786-0 renal and in the test on MDA-MB-231 breast was over 100 µM in each case.

For the compound `O=S(=O)(O)CCSSCCS(=O)(=O)O`, the TGI in the test on MCF7 breast, in the test on SK-MEL-2 melanoma, in the test with SR leukemia, in the test on IGROV1 ovarian, with SN12C renal and with LOX IMVI melanoma was over 1000 µM in each case. Moreover, the TGI with OVCAR-4 ovarian, in the test with PC-3 prostate, in the test on 786-0 renal and in the test with MDA-MB-231 breast was over 1000 µM in each case.

As to `CN1CCCC2C(c3ccccc3)C(C3=NCCCC3)C(c3ccccc3)CC21` (stereo not given), the TGI in the test with MCF7 breast is over 100 µM; in the test on SK-MEL-2 melanoma it was over 100 µM; with SR leukemia, over 100 µM; in the test with IGROV1 ovarian, over 100 µM; with SN12C renal, over 100 µM; in the test on LOX IMVI melanoma, 55.2 µM. Moreover, the TGI with OVCAR-4 ovarian, with PC-3 prostate, in the test on 786-0 renal and with MDA-MB-231 breast was over 100 µM in each case.

As to `CC1=NN(c2cccc(S(=O)(=O)O)c2)C2(C1)C(Cl)C(=O)N2c1nc2ccccc2s1` (stereo not given), the TGI in the test on MCF7 breast turned out to be 25 µM; in the test on SK-MEL-2 melanoma, 15.4 µM; with SR leukemia, 17.4 µM; in the test on IGROV1 ovarian it was 3.5 µM; with SN12C renal it was 19.9 µM; with LOX IMVI melanoma, 3.77 µM. Also, the TGI with OVCAR-4 ovarian is 14.9 µM; with PC-3 prostate, 22.9 µM; in the test on 786-0 renal, 11.7 µM; in the test on MDA-MB-231 breast, 23.1 µM.

For `CC1=NN(c2ccccc2)C2(C1)C(Cl)C(=O)N2c1nc2ccccc2s1` (stereo not given), the TGI in the test with MCF7 breast is over 100 µM; in the test with SK-MEL-2 melanoma it was 78.1 µM; in the test on SR leukemia, 80 µM; with IGROV1 ovarian, over 100 µM; in the test on SN12C renal it was over 100 µM; with LOX IMVI melanoma it was 26.3 µM. Moreover, the TGI was over 100 µM in the test on OVCAR-4 ovarian, over 100 µM in the test with PC-3 prostate, over 100 µM with 786-0 renal and 89.2 µM in the test on MDA-MB-231 breast.

Regarding `CCOC(=O)CC[C@H](N)C(=O)N[C@@H](Cc1ccc(N(CCCl)CCCl)cc1)C(=O)OCC`, the TGI in the test with MCF7 breast was 15.5 µM; in the test with SK-MEL-2 melanoma it was 5.28 µM; with SR leukemia, over 42.2 µM; in the test on IGROV1 ovarian, 4.75 µM; in the test with SN12C renal, 9.22 µM; in the test with LOX IMVI melanoma, 2.94 µM. The TGI came to 1.41 µM in the test on OVCAR-4 ovarian, 7.46 µM in the test on PC-3 prostate, 2.51 µM in the test on 786-0 renal and 4.41 µM in the test on MDA-MB-231 breast.

On to `Cn1c(-c2cccs2)cc(-c2cccs2)c1-c1cccs1`, for which the TGI in the test on MCF7 breast, with SK-MEL-2 melanoma, with SR leukemia, in the test with IGROV1 ovarian, with SN12C renal and in the test with LOX IMVI melanoma was over 100 µM in each case. The TGI with OVCAR-4 ovarian, with PC-3 prostate, with 786-0 renal and in the test on MDA-MB-231 breast was over 100 µM each time.
